Here are results for five compounds from US20250282723A1, “AMYLOID TARGETING AGENTS AND METHODS OF USING THE SAME” (The Regents of the University of California, priority 2021, published 2025).

By Kd is commonly meant the constant that tells how readily two partners part at equilibrium.

“And” between values parts separate entries of the source, which are not always exact repeats. Identical values can stand only once.

Series [1] deals with T1, aggregated Aβ (1-42) peptides (Homo sapiens, UniProt P05067).
T1 construct: Synthetic Aβ (1-42) peptide was purchased from Biopeptide, Co LLC; purchased Biopeptide, Co LLC (San Diego, California); host or cells: chemical synthesis
Nature of the series: Fluorescence excitation/emission and fluorescence enhancement of probes bound versus unbound to aggregated Aβ (1-42) peptides. In kind it is binding. Conditions: probe 4 μM; for Em (λmax) (with Aβ) / Ex (λmax) (with Aβ): aggregated Aβ (1-42) 5 μM; for Fold Increase with Aβ: fluorescence intensity with aggregated Aβ (1-42) 5 μM vs probe alone, at λmax of the amyloid-bound state. The method, then:
(§1) Preparation of aggregated Aβ (1-42) peptides. Synthetic Aβ (1-42) peptide was purchased from Biopeptide, Co LLC (San Diego, California). Aggregated Aβ (1-42) was prepared as previously described.^26 Briefly, Aβ (1-42) was dissolved in 100% 1,1,1,3,3,3,-hexafluoro-2-propanol (HFIP) to a concentration of 1 mM and put on a shaker at room temperature (RT) for 24 hours. The solution was then diluted in cold nanopure water (2:1 H2O: HFIP). Aliquoted fractions were lyophilized for 3 days before dissolving in nanopure water to a concentration of 100 μM. Aggregated Aβ solutions were incubated and shaken at 37° C. for 3 days before use. The formation of soluble aggregates (67% fibrils as a mixture with 13% oligomers and 20% monomer) was confirmed using a standard thioflavin T (ThT) assay and by Sodium Dodecyl Sulphate-Polyacrylamide Gel Electrophoresis (SDS-PAGE) gel analysis (FIG. 11 and FIG. 12).
(§2) Estimation of fluorescence enhancement of probes when bound versus unbound to aggregated Aβ (1-42) peptides. Aggregated Aβ (1-42) at a final concentration of 5 μM (based on the molecular weight of monomer) was mixed with each fluorescent probe at a final concentration of 4 μM in 5% DMSO in nanopure water. The solution (80 μL) was transferred to a black opaque 96 well plate and the fluorescence was read using a microplate reader. For all probes, the relative fluorescence enhancement of the bound versus unbound state was estimated by comparing the intensity at λmax of the amyloid-bound state.
(§3) Synthetic Aβ (1-42) peptide was purchased from Biopeptide, Co LLC (San Diego, California). Aggregated Aβ (1-42) was prepared as previously described.^32 Briefly, monomeric Aβ (1-42) was dissolved in 100% 1,1,1,3,3,3,-hexafluoro-2-propanol (HFIP) to a final concentration of 1 mM and dissolved on a shaker at RT for 24 hours. This solution was then diluted with cold nanopure water (2:1 H2O:HFIP) and aliquoted into fractions. These samples were then lyophilized for 3 days before dissolving in nanopure water to a final concentration of 100 μM. AD solutions were aggregated by incubating and shaking at 37° C. for 3 days before use. The formation of soluble aggregates was confirmed using a standard Thioflavin T (ThT) assay and by SDS-PAGE gel analysis.^1
(§4) Aggregated αS or Aβ(1-42) at a final concentration of 5 μM (based on the molecular weight of monomer) was mixed with each fluorescent probe at a final concentration of 4 μM in 5% DMSO in nanopure water. The solution (80 μL total volume) was transferred to a black opaque 96 well plate and the fluorescence excitation and emission were read using a microplate reader. For emission fluorescence enhancement, the relative fluorescence enhancement of the bound versus unbound state was estimated by comparing the fluorescence intensity at λmax of the amyloid-bound state.

The target in series [2] is T1, aggregated Aβ (1-42) peptides. Nature of the series: Estimation of binding constant (KD) to aggregated Aβ (1-42) peptides. Conditions: aggregated Aβ(1-42) 5 μM, increasing concentration of probe, 5% DMSO in nanopure water. As for the experimental part:
as §1
Estimation of Binding Constant (KD) to aggregated Aβ (1-42) peptides. Aggregated Aβ(1-42) at a final concentration of 5 μM (based on the molecular weight of monomer) was mixed with increasing concentration of each probe in 5% DMSO in nanopure water. KD's were determined as previously described.^21
as §3
(§5) Aggregated Aβ(1-42) or αS at a final concentration of 5 μM (based on the molecular weight of the monomer) was mixed with an increasing concentration of each probe in 5% DMSO in nanopure water. Kd's were calculated as previously described.^34 The measurements for each probe were repeated in technical triplicates and the averages are shown with standard deviations. Kd's for probes 1-3 with aggregated Aβ(1-42) have been reported previously.^31

Series [3] in a line: Fluorescence excitation and emission spectra of free (unbound) probes in aqueous solution. In kind it is physicochemical. Conditions: for Em (λmax) (Free) / Ex (λmax) (Free): free probe in aqueous solution; for fluorescence intensity of the free probe in aqueous solution compared to ARCAM (1): free probes in aqueous solution, FIG. 2. As for the experimental part: as §2, §4
Series [4] is described as follows: Quantum yield measurements. In kind it is physicochemical. Conditions: 5% DMSO/H2O, reference standard Coumarin 30. As for the experimental part:
Quantum Yield Measurements. To determine the quantum yield (QY) of compounds ARCAM, 1-5, a procedure that was similar to a previously reported protocol for estimating the QY for Thioflavin T^24 was used. Briefly, the absorbance spectrum of each probe (in 5% Dimethyl Sulfoxide (DMSO)/water (H2O)), in addition to the absorbance spectrum for the reference standard (Coumarin 30, QY=0.67)^27 was measured. The wavelength at which the two normalized absorbance curves intersected was used as the excitation wavelength. A serial dilution of each probe and the standard was made with absorbance values at the excitation wavelength in the range of 0 to 0.1 absorbance units. At each concentration, the emission spectra for each probe and the standard were measured. Technical triplicates of these experiments were performed for all probes, and the averages were recorded. From these emission spectra, the area under the curve was calculated and plotted against the absorbance at each concentration (FIGS. 3-7). The data were fitted to Equation 1 to obtain estimates for QY: […]
where QY represents the quantum yield, A represents the absorbance, E represents the integrated fluorescence emission, η represents the refractive index of the solvent^28,29, and the ‘p’ and ‘r’ subscripts signify the probe or the reference compound, respectively.
Quantum Yield ((D) for each probe was measured as described previously.^31 Briefly, we measured the absorbance spectrum of each probe in 5% DMSO/H2O, as well as the absorbance spectrum for the reference standard (Coumarin 30, =0.67 in Acetonitrile). Both normalized absorbance curves were plotted, and the wavelength of intersection was used as the excitation wavelength. A serial dilution was made for each probe and the standard with absorbance values at the excitation wavelength varying between of 0 to 0.1 absorbance units. At each concentration, the emission spectra for each probe and the standard were measured. Each experiment was repeated in technical triplicates for all probes, and the averages were recorded. The integrated fluorescence emission was calculated and plotted against the absorbance at each concentration. The data were fitted to Equation Si to obtain estimates for Φ: […]
where Φ represents the quantum yield, A represents the absorbance, E represents the integrated fluorescence emission, η represents the refractive index of the solvent, and the ‘p’ and ‘r’ subscripts signify the probe or the reference compound, respectively.

For series [5] the following is noted: in Acetonitrile; cited from earlier work.
Series [6] concerns the target T2, aggregated αS (Homo sapiens, UniProt P37840).
T2 construct: made in house; host or cells: E. coli BL21 (plasmid pET5α aSynWT)
Nature of the series: Estimation of binding constant (Kd) to aggregated αS. The conditions noted are these: probes of FIG. 14; aggregated αS 5 μM, increasing concentration of probe, 5% DMSO in nanopure water. The method, then:
(§6) Expression and purification of recombinant α-synuclein was followed as reported previously.^32 Briefly, α-synuclein was purified from BL21 E. coli as described: A starter culture of transformed bacteria (pET5α aSynWT) (LB broth with ampicillin [final concentration: 100 μg/mL]) was incubated overnight. Following incubation, 25 mL of the started culture was added to a 500 mL mixture of LB broth and ampicillin. Protein expression was induced by addition of IPTG [0.119 g/500 mL] when an OD600 between 0.5-0.8 was achieved. After 4 h, flasks were centrifuged (5,000×g for 20 min) and the supernatant was removed. The pellets were then re-suspended in 20 mM Tris, 25 mM NaCl, 1 mM EDTA, pH 8.0, transferred into a flask, boiled for 1-2 minutes in a microwave, and boiled in a water bath (90° C.) for 30 minutes. Samples were then centrifuged (18,000×g for 30 min) and the supernatant was collected and filtered through a 0.2 μm filter. α-synuclein protein was further purified using 2×5 ml HiTrapQ HP anion exchange columns (GE, #17-1153-01) followed by Size Exclusion Column (Superdex 200, #28-9893-35). Pure α-synuclein determined by Coomassie and western blot were lyophilized and stored at −80° C. until use.
(§7) Aggregation of purified α-synuclein was followed as reported previously.^33 The lyophilized powder was dissolved to a final concentration of 100 μM in sodium phosphate buffer (50 mM, pH 7.4) with 0.1 mM EDTA and 0.02% sodium azide (w/v) and was aggregated at 37° C. with shaking at 500 rpm for 3 weeks. Fibrillization was confirmed by SDS-PAGE gel and standard ThT assay.
as §5

Series [7] has as its target T2, aggregated αS. The series is described as follows: Fluorescence emission and fluorescence enhancement of probes bound versus unbound to aggregated αS. In kind it is binding. The conditions noted are these: probes of FIG. 14. The method, then: as §6, §7, §4

T1 sequence (P05067 672-713): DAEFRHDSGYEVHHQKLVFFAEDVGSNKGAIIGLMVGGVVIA

For `COCCOCCOCCNC(=O)C(C#N)=C(c1ccc2cc(N3CCCCC3)ccc2c1)C(F)(F)F` (mixture of isomers) [Compound 3, (Z)-2-cyano-4,4,4-trifluoro-N-(2-(2-(2-methoxyethoxy)ethoxy)ethyl)-3-(6-(piperidin-1-yl)naphthalen-2-yl)but-2-enamide], in series [1] (5% DMSO in nanopure water), the “Em (λmax) (with Aβ)” value was found to be 514 ± 6 nm; the “Ex (λmax) (with Aβ)” value is 410 ± 5 nm; the “Fold Increase with Aβ” value was 5.4 fold and 5.4 ± 0.9 fold. For the same compound, the Kd in series [2] was 3.7 ± 1.1 µM. In series [3], the “Em (λmax) (Free)” value was 547 ± 5 nm, the “Ex (λmax) (Free)” value was determined as 419 ± 4 nm and the “fluorescence intensity of the free probe in aqueous solution compared to ARCAM (1)” value is on record as “decreased in fluorescence intensity by two orders of magnitude”. This compound also registered a QY in series [4] of 0.0012 ± 0.0004.
Regarding `COCCOCCOCCNC(=O)/C(C#N)=C(\C)c1ccc2cc(N3CCCCC3)ccc2c1` [Compound 2, (E)-2-cyano-N-(2-(2-(2-methoxyethoxy)ethoxy)ethyl)-3-(6-(piperidin-1-yl)naphthalen-2-yl)but-2-enamide], in series [1] (5% DMSO in nanopure water), the “Em (λmax) (with Aβ)” value came to 547 ± 4 nm; the “Ex (λmax) (with Aβ)” value was found to be 364 ± 6 nm; the “Fold Increase with Aβ” value is 3.5 fold and 3.5 ± 0.9 fold. For the same compound, in series [2], the Kd was 5 ± 1.7 µM. In series [3], the “Em (λmax) (Free)” value was 601 ± 2 nm, the “Ex (λmax) (Free)” value turned out to be 372 ± 14 nm and the “fluorescence intensity of the free probe in aqueous solution compared to ARCAM (1)” value is recorded as “decreased in fluorescence intensity by two orders of magnitude”. Besides, the QY in series [4] is 0.0016 ± 0.0005.
For `CCN(CC)c1ccc2cc(-c3nc4ccccc4n3C)c(=O)oc2c1` [Coumarin 30], in series [5], the “quantum yield of the reference standard” value is listed as 0.67.
In the case of `CCCC1CCCCN1c1ccc2cc(/C=C(\C#N)C(=O)NCCOCCOCCOC)ccc2c1` (stereo not drawn) [Probe 4, (E)-2-cyano-N-(2-(2-(2-methoxyethoxy)ethoxy)ethyl)-3-(6-(2-propylpiperidin-1-yl)naphthalen-2-yl)acrylamide], the dissociation constant (Kd) at aggregated αS [6] was 500 ± 100 nM; in series [2] (probes of FIG. 14), 4 ± 2.7 µM. For the same compound, in series [1] (probes of FIG. 14, aggregated Aβ(1-42) 5 μM, 5% DMSO in nanopure water), the “Emmax (with Aβ)” value came to 558 nm. The “FI with Aβ” value in series [1] (probes of FIG. 14, fold increase of fluorescence, bound vs unbound, aggregated Aβ(1-42) 5 μM) came out at 1.8 ± 0.2. The “Emmax (Free)” value in series [3] (probes of FIG. 14, free) stood at 578 nm. The “Emmax (with αS)” value at aggregated αS [7] (aggregated αS 5 μM, probe 4 μM, 5% DMSO in nanopure water) amounted to 539 nm. Further, the “FI with αS” value on aggregated αS [7] (fold increase of fluorescence, bound vs unbound, aggregated αS 5 μM, probe 4 μM) was 5.2 ± 0.8. In addition, on aggregated αS [7] (selectivity of fluorescence response to αS fibrils over Aβ fibrils), the “FI αS/Aβ” value came to 2.9. Moreover, the “Quantum Yield (Φ)” value in series [4] (probes of FIG. 14) is 0.0062.
In series [4], `Cc1ccc2c(c1)sc(-c1ccc(N(C)C)cc1)[n+]2C.[Cl-]` [ThT, Thioflavin T, reference compound] returned a QY of 0.0006.
